Where a name gives a salt, the structure may show the parent alone.
Target: T1, recombinant human LTA4 hydrolase (rhLTA4H) (Homo sapiens, UniProt P09960)
T1 construct: made in house; host or cells: Spodoptera frugiperda (Sf-9) cells, baculovirus (pFastBac1)
T1 sequence (P09960 1-611): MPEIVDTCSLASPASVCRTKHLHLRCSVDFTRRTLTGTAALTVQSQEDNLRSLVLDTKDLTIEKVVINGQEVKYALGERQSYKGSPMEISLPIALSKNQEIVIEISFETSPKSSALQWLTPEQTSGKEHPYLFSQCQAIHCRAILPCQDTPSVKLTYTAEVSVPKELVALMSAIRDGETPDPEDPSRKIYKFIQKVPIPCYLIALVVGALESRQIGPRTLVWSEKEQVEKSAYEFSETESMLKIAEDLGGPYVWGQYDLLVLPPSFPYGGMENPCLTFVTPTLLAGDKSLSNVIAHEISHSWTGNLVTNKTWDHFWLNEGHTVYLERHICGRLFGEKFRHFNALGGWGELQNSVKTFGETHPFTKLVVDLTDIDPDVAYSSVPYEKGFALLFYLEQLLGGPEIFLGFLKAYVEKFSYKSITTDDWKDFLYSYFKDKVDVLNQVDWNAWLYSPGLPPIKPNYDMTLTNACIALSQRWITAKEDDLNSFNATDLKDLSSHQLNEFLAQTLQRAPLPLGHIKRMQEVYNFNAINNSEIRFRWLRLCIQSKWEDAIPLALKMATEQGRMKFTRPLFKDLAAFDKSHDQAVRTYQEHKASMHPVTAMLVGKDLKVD
Assay: Recombinant Human LTA4 Hydrolase Assay for LTA4 Hydrolase Inhibitor Activity
Format: biochemical
Settings: average of results obtained; LTB4 quantified by enzyme-linked immunoassay
How it was run: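 Baculovirus/Sf-9-expressed human LTA4 hydrolase (36 ng) preincubated with compound 10 min at rt in 0.1 M potassium phosphate pH 7.4, 5 mg/mL fatty-acid-free BSA. Reaction started with 9 ng LTA4 free acid, run 10 min at rt; LTB4 measured by enzyme immunoassay, IC50 from 4-parameter fit.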

Structure (SMILES)	Ki
CS(=O)(=O)N1[C@@H]2CC[C@H]1C[C@H](NCCc1ccc(Oc3nc4c(Cl)cccc4s3)cc1)C2 [Example 237, meso-exo-{2-[4-(4-Chloro-benzothiazol-2-yloxy)-phenyl]-ethyl}-(8-methanesulfonyl-8-aza-bicyclo[3.2.1]oct-3-yl)-amine]	0.244 µM
O=C(C1CCOCC1)N1CC2CN(Cc3ccc(Oc4nc5ccccc5s4)cc3)CC2C1 (centres unmarked) [Example 103, {5-[4-(Benzothiazol-2-yloxy)-benzyl]-hexahydro-pyrrolo[3,4-c]pyrrol-2-yl}-(tetrahydro-pyran-4-yl)-methanone]	0.051 µM
NC(=O)N1C[C@H]2C[C@@H]1CN2Cc1ccc(Oc2nc3c(F)cccc3s2)cc1 [Example 186, (R,R)-5-[4-(4-Fluoro-benzothiazol-2-yloxy)-benzyl]-2,5-diaza-bicyclo[2.2.1]heptane-2-carboxylic acid amide]	0.01 µM
Cc1noc(C)c1NC(=O)N1CC2CN(Cc3ccc(Oc4nc5ccccc5s4)cc3)CC2C1 (centres unmarked) [Example 133, 5-[4-(Benzothiazol-2-yloxy)-benzyl]-hexahydro-pyrrolo[3,4-c]pyrrole-2-carboxylic acid (3,5-dimethyl-isoxazol-4-yl)-amide]	0.02 µM
NC(=O)NC1[C@H]2CN(Cc3ccc(Oc4nc5ccccc5s4)cc3)C[C@@H]12 (stereo partly drawn) [Example 140, (R,S)-{3-[4-(Benzothiazol-2-yloxy)-benzyl]-3-aza-bicyclo[3.1.0]hex-6-yl}-urea]	0.019 µM
NCC(=O)N1C[C@@H]2C[C@H]1CN2CCOc1ccc(Oc2nc3ccccc3s2)cc1 [Example 31, (S,S)-2-Amino-1-(5-{2-[4-(benzothiazol-2-yloxy)-phenoxy]-ethyl}-2,5-diaza-bicyclo[2.2.1]hept-2-yl)-ethanone]	0.076 µM
CC(=O)N[C@@H]1C[C@H]2CC[C@@H](C1)N2CCOc1ccc(Oc2nc3cccc(Cl)c3s2)cc1 [Example 195, meso-exo-N-(8-{2-[4-(7-Chloro-benzothiazol-2-yloxy)-phenoxy]-ethyl}-8-aza-bicyclo[3.2.1]oct-3-yl)-acetamide]	1.66 µM
CCOC(=O)CN1CC2CN(Cc3ccc(Oc4nc5ccccc5s4)cc3)CC2C1 (centres unmarked) [Example 155, {5-[4-(Benzothiazol-2-yloxy)-benzyl]-hexahydro-pyrrolo[3,4-c]pyrrol-2-yl}-acetic acid ethyl ester]	0.17 µM
O=C(N1C[C@@H]2C[C@H]1CN2Cc1ccc(Oc2nc3ccccc3s2)cc1)C1(O)CC1 [Example 11, (S,S)-{5-[4-(Benzothiazol-2-yloxy)-benzyl]-2,5-diaza-bicyclo[2.2.1]hept-2-yl}-(1-hydroxy-cyclopropyl)-methanone]	0.013 µM
c1ccc2sc(Cc3ccc(CN4C[C@@H]5C[C@H]4CN5)cc3)nc2c1 [Example 4D, (S,S)-2-[4-(2,5-Diaza-bicyclo[2.2.1]hept-2-ylmethyl)-benzyl]-benzothiazole dihydrochloride]	0.26 µM
O=C(CO)N1C[C@@H]2C[C@H]1CN2CCc1cccc(Oc2nc3ccccc3s2)c1 [Example 20, (S,S)-1-(5-{2-[3-(Benzothiazol-2-yloxy)-phenyl]-ethyl}-2,5-diaza-bicyclo[2.2.1]hept-2-yl)-2-hydroxy-ethanone]	0.073 µM
O=C(O)CN1CC2CN(Cc3ccc(Oc4nc5ccccc5s4)cc3)CC2C1 (centres unmarked) [Example 158, {5-[4-(Benzothiazol-2-yloxy)-benzyl]-hexahydro-pyrrolo[3,4-c]pyrrol-2-yl}-acetic acid]	0.048 µM
NC(=O)N1C[C@H]2C[C@@H]1CN2CCc1ccc(Oc2nc3cccc(F)c3s2)cc1 [Example 245, (R,R)-5-{2-[4-(7-Fluoro-benzothiazol-2-yloxy)-phenyl]-ethyl}-2,5-diaza-bicyclo[2.2.1]heptane-2-carboxylic acid amide]	0.012 µM
CS(=O)(=O)N1C[C@H]2C[C@@H]1CN2Cc1ccc(Oc2nc3cc(Cl)ccc3s2)cc1 [Example 181, (R,R)-5-Chloro-2-[4-(5-methanesulfonyl-2,5-diaza-bicyclo[2.2.1]hept-2-ylmethyl)-phenoxy]-benzothiazole]	1.47 µM
CS(=O)(=O)N1CC2CCC(C1)N2Cc1ccc(Oc2nc3cccc(Cl)c3s2)cc1 [Example 174, meso-7-Chloro-2-[4-(3-methanesulfonyl-3,8-diaza-bicyclo[3.2.1]oct-8-ylmethyl)-phenoxy]-benzothiazole]	0.196 µM
CC(C)(C)OC(=O)N1CC(C(=O)N2C[C@@H]3C[C@H]2CN3Cc2ccc(Oc3nc4ccccc4s3)cc2)C1 [Example 64, (S,S)-3-{5-[4-(Benzothiazol-2-yloxy)-benzyl]-2,5-diaza-bicyclo[2.2.1]heptane-2-carbonyl}-azetidine-1-carboxylic acid tert-butyl ester]	0.058 µM
CC(=O)N[C@@H]1C[C@H]2CC[C@@H](C1)N2CCOc1ccc(Oc2nc3ccc(F)cc3s2)cc1 [Example 227, meso-exo-N-(8-{2-[4-(6-Fluoro-benzothiazol-2-yloxy)-phenoxy]-ethyl}-8-aza-bicyclo[3.2.1]oct-3-yl)-acetamide]	0.008 µM

The remaining lines, values ahead:

Ki	Structure (SMILES)
0.24 µM	CC(=O)N1[C@@H]2CC[C@H]1C[C@@H](N(C)Cc1ccc(Oc3nc4ccccc4s3)cc1)C2 [Example 74, meso-endo-1-(3-{[4-(Benzothiazol-2-yloxy)-benzyl]-methyl-amino}-8-aza-bicyclo[3.2.1]oct-8-yl)-ethanone]
0.079 µM	CC(=O)N[C@H]1C[C@H]2CC[C@@H](C1)N2CCOc1ccc(Oc2nc3ccc(C)cc3s2)cc1 [Example 271]
0.012 µM	CC(=O)N1CC2CCC(C1)N2Cc1ccc(Oc2nc3ccccc3s2)cc1F [Example 77, meso-1-{8-[4-(Benzothiazol-2-yloxy)-2-fluoro-benzyl]-3,8-diaza-bicyclo[3.2.1]oct-3-yl}-ethanone]
0.093 µM	NC(=O)N1C[C@@H]2C[C@H]1CN2Cc1ccc(Cc2nc3ccccc3s2)cc1 [Example 35, (S,S)-5-(4-Benzothiazol-2-ylmethyl-benzyl)-2,5-diaza-bicyclo[2.2.1]heptane-2-carboxylic acid amide]
0.221 µM	O=C(C1CNC1)N1CC2CN(Cc3ccc(Oc4nc5ccccc5s4)cc3)CC2C1 (centres unmarked) [Example 99, Azetidin-3-yl-{5-[4-(benzothiazol-2-yloxy)-benzyl]-hexahydro-pyrrolo[3,4-c]pyrrol-2-yl}-methanone]
0.338 µM	CC(=O)N1CC2CCC(C1)N2CCOc1ccc(Oc2nc3cccc(Cl)c3s2)cc1 [Example 283, meso-1-(8-{2-[4-(7-Chloro-benzothiazol-2-yloxy)-phenoxy]-ethyl}-3,8-diaza-bicyclo[3.2.1]oct-3-yl)-ethanone]
0.032 µM	O=C(O)c1ccc(CN2CC3CN(Cc4ccc(Oc5nc6ccccc6s5)cc4)CC3C2)cc1 (centres unmarked) [Example 154, 4-{5-[4-(Benzothiazol-2-yloxy)-benzyl]-hexahydro-pyrrolo[3,4-c]pyrrol-2-ylmethyl)-benzoic acid]
0.025 µM	CC(=O)N[C@H]1C[C@H]2CC[C@@H](C1)N2Cc1ccc(Oc2nc3c(Cl)cccc3s2)cc1 [Example 71, meso-endo-N-{8-[4-(4-Chloro-benzothiazol-2-yloxy)-benzyl]-8-aza-bicyclo[3.2.1]oct-3-yl}-acetamide]
0.12 µM	CS(=O)(=O)N1CC2CCN(Cc3ccc(Oc4nc5ccccc5s4)cc3)C2C1 (centres unmarked) [Example 128, 2-[4-(5-Methanesulfonyl-hexahydro-pyrrolo[3,4-b]pyrrol-1-ylmethyl)-phenoxy]-benzothiazole]
0.167 µM	CC(=O)N1CC2CCC(C1)N2CCOc1ccc(Oc2nc3c(Cl)cccc3s2)cc1 [Example 247]
0.0002 µM	CS(=O)(=O)N[C@H]1C[C@H]2CC[C@@H](C1)N2Cc1ccc(Oc2nc3ccccc3s2)cc1 [Example 58, meso-endo-N-{8-[4-(Benzothiazol-2-yloxy)-benzyl]-8-aza-bicyclo[3.2.1]oct-3-yl}-methanesulfonamide]
0.044 µM	NC(=O)N[C@H]1C[C@H]2CC[C@@H](C1)N2Cc1ccc(Cc2nc3ccccc3o2)cc1 [Example 37, meso-endo-[8-(4-Benzooxazol-2-ylmethyl-benzyl)-8-aza-bicyclo[3.2.1]oct-3-yl]-urea]
3.13 µM	CS(=O)(=O)N1[C@@H]2CC[C@H]1C[C@@H](NCCOc1ccc(Oc3nc4cccc(Cl)c4s3)cc1)C2 [Example 248, meso-endo-{2-[4-(7-Chloro-benzothiazol-2-yloxy)-phenoxy]-ethyl}-(8-methanesulfonyl-8-aza-bicyclo[3.2.1]oct-3-yl)-amine]
0.069 µM	O=C(c1cnccn1)N1CC2CN(Cc3ccc(Oc4nc5ccccc5s4)cc3)CC2C1 (centres unmarked) [Example 105, {5-[4-(Benzothiazol-2-yloxy)-benzyl]-hexahydro-pyrrolo[3,4-c]pyrrol-2-yl}-pyrazin-2-yl-methanone]
0.021 µM	CS(=O)(=O)N1[C@@H]2CC[C@H]1C[C@@H](NCCc1ccc(Oc3nc4c(F)cccc4s3)cc1)C2 [Example 279, meso-endo-{2-[4-(4-Fluoro-benzothiazol-2-yloxy)-phenyl]-ethyl}-(8-methanesulfonyl-8-aza-bicyclo[3.2.1]oct-3-yl)-amine]
